We go through three molecules from PMC5725665, “Discovery of a Highly Selective Cell‐Active Inhibitor of the Histone Lysine Demethylases KDM2/7” (Angewandte Chemie (International Ed. in English), 2017).

What all share (experiment): biochemical
Holding throughout (parameters): AlphaScreen histone demethylase activity assay

One assay addresses T1, JMJD1A (KDM3A) (Homo sapiens, UniProt Q9Y4C1).
T1 sequence (Q9Y4C1 1-1321): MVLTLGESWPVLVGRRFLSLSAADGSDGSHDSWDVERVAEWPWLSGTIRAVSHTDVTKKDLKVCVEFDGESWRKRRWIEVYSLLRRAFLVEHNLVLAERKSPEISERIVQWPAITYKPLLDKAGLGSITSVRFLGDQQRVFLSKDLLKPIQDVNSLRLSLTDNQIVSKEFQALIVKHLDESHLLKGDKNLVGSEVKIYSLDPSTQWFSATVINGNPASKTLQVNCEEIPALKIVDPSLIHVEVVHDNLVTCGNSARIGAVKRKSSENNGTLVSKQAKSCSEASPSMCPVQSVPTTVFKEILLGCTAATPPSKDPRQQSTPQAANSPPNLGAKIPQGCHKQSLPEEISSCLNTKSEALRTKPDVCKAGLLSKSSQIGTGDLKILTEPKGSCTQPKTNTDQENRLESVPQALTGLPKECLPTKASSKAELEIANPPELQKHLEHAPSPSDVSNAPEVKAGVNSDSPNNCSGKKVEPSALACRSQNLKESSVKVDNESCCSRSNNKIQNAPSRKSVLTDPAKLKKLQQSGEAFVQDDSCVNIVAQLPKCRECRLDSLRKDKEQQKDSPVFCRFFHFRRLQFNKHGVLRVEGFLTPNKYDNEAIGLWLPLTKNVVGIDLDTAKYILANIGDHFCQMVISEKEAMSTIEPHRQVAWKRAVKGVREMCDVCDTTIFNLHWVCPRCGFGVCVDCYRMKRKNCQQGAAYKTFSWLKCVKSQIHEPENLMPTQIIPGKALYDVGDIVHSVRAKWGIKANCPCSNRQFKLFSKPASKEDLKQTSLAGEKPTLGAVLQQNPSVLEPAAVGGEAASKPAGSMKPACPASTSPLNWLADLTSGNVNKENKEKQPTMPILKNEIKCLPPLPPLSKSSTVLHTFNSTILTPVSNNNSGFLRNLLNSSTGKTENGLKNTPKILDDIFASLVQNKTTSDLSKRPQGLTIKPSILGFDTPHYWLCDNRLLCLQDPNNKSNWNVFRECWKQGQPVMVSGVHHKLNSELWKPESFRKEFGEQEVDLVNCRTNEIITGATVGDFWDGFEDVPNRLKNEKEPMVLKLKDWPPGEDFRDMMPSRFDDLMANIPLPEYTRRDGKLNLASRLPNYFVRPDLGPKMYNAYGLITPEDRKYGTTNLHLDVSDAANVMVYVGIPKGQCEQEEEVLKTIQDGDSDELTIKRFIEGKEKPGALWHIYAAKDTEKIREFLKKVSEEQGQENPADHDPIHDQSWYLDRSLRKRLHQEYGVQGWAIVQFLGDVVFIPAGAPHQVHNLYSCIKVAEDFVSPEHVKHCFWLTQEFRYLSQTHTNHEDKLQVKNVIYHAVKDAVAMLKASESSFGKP
The text has this: (§1) A base‐mediated 5‐endo‐trig cyclization of a C‐2‐substituted aromatic imine afforded the racemic indoline core with two adjacent stereocenters. Subsequent acylation of the indoline ring system conferred stability towards oxidation and provided a handle for modulating polarity. Finally, metal‐catalysed cross‐coupling of the aryl bromide provided access to a variety of linkers between the indoline core and pyrrolidine capping group. In total, 45 racemic compounds were synthesized, and IC50 values for inhibition of KDM2A were determined using two orthogonal enzyme activity assays: AlphaScreen25 and RapidFire MS26 (see Section S3.1 in the Supporting Information for complete inhibition data). Key structure–activity relationships are summarized below (Scheme 1 B, compounds 2–12). […] In immunofluorescence assays using HeLa cells ectopically expressing catalytically active KDM2A, a dose‐dependent increase in H3K36me2 staining was observed upon incubation with (S,S)‐6, reflecting augmented cellular H3K36me2 levels (Figure 2 A and Section S3.3). […] To profile its selectivity, (S,S)‐6 was tested for inhibitory activity against a panel of KDMs, methyllysine binding motifs, and epigenetic enzymes.

The next assay concerns the target JARID1C (KDM5C) (Homo sapiens, UniProt P41229).
Excerpt: as §1

The target of a further assay is JARID1A (KDM5A) (Homo sapiens, UniProt P29375).
JARID1A (KDM5A), sequence (P29375 whole entry): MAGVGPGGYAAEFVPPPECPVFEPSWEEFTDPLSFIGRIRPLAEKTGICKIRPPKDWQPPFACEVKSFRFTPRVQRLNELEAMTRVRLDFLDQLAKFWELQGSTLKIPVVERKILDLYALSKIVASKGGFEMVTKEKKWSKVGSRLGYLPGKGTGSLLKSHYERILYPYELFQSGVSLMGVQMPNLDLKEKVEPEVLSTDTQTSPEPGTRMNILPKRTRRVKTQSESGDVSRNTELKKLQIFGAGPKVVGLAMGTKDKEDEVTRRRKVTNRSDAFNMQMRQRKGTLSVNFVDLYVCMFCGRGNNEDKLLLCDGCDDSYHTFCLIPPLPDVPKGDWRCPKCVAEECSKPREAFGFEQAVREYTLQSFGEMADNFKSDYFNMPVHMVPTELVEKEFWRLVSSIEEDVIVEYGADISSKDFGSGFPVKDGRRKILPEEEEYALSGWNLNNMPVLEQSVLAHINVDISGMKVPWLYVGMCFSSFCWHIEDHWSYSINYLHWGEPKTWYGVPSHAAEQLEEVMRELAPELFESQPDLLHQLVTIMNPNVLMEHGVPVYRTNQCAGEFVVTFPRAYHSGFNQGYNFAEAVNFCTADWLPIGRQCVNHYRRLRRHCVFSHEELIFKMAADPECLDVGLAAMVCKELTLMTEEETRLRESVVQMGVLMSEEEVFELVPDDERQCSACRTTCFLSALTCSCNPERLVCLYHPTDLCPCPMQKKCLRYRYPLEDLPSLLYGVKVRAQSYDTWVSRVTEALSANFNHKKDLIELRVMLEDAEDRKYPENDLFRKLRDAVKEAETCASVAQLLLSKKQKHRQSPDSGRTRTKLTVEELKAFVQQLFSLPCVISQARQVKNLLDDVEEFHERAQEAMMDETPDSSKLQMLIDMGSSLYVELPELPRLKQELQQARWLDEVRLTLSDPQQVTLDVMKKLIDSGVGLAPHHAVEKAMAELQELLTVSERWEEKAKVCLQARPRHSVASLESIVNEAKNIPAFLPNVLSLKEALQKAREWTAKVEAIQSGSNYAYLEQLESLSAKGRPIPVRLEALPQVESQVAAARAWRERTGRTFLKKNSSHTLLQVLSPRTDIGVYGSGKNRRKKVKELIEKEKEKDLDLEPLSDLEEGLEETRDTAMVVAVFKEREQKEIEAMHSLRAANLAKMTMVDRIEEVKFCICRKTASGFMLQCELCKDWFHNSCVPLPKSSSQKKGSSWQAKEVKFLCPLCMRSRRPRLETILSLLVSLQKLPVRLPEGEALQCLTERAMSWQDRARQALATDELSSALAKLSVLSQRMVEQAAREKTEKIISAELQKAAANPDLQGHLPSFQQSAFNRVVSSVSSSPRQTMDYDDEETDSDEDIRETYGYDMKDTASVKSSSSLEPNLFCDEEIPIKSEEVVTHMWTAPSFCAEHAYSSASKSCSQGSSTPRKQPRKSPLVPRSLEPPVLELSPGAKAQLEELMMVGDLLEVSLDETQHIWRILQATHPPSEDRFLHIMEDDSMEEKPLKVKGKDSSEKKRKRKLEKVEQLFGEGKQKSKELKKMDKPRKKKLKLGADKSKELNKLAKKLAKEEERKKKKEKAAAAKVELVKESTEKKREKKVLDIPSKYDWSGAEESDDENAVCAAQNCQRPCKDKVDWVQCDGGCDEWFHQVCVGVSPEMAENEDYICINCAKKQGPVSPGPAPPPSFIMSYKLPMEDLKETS
Excerpt: as §1

The next assay deals with T2, JMJD2D (KDM4D) (Homo sapiens, UniProt Q6B0I6).
T2 sequence (Q6B0I6 1-523): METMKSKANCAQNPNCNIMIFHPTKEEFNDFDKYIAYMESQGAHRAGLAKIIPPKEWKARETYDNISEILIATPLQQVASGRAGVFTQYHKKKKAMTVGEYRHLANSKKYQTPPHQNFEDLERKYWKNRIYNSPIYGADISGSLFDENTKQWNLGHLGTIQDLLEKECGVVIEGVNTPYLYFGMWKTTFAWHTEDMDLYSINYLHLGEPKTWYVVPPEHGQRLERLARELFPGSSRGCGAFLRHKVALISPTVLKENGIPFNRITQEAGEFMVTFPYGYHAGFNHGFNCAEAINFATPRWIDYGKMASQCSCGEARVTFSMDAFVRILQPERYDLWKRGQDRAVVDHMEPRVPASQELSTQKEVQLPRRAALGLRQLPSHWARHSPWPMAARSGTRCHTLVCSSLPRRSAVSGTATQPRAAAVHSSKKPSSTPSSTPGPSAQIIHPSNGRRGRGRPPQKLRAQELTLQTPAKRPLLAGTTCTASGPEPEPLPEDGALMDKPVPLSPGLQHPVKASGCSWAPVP
Excerpt: as §1

The target in another assay is T3, JMJD2C (KDM4C) (Homo sapiens, UniProt Q9H3R0).
T3 sequence (Q9H3R0 1-1056): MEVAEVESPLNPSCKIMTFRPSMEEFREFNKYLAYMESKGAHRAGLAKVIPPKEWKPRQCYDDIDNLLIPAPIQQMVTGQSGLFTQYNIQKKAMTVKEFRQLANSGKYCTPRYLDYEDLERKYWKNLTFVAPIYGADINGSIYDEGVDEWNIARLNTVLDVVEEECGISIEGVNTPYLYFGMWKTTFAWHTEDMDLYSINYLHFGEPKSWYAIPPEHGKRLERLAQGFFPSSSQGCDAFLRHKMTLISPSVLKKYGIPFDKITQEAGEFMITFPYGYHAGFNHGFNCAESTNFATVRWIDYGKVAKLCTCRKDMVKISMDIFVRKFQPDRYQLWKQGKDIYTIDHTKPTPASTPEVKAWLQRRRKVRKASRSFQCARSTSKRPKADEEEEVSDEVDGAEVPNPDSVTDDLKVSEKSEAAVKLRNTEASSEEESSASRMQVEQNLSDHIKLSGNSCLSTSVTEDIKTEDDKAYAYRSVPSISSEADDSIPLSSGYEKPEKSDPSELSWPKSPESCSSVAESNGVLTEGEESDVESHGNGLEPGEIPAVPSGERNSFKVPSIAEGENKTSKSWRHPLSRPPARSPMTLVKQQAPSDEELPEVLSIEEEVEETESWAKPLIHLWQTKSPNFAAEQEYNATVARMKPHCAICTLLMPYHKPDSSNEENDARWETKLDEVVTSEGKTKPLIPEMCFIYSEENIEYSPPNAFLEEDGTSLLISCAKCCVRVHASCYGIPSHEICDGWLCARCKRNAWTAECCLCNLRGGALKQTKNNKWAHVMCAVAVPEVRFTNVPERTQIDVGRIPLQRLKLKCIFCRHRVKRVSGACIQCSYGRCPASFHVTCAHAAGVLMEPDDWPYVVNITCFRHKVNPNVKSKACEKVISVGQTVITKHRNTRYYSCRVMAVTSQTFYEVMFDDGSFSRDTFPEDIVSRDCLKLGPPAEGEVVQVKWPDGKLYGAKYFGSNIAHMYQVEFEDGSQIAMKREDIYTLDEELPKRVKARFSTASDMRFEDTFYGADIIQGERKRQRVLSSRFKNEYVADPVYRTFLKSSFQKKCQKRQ
The note with it: read-out: KDM4C % Inhib. (10 uM).
Excerpt: as §1

Another assay addresses T4, JMJD2A (KDM4A) (Homo sapiens, UniProt O75164).
T4 sequence (O75164 1-1064): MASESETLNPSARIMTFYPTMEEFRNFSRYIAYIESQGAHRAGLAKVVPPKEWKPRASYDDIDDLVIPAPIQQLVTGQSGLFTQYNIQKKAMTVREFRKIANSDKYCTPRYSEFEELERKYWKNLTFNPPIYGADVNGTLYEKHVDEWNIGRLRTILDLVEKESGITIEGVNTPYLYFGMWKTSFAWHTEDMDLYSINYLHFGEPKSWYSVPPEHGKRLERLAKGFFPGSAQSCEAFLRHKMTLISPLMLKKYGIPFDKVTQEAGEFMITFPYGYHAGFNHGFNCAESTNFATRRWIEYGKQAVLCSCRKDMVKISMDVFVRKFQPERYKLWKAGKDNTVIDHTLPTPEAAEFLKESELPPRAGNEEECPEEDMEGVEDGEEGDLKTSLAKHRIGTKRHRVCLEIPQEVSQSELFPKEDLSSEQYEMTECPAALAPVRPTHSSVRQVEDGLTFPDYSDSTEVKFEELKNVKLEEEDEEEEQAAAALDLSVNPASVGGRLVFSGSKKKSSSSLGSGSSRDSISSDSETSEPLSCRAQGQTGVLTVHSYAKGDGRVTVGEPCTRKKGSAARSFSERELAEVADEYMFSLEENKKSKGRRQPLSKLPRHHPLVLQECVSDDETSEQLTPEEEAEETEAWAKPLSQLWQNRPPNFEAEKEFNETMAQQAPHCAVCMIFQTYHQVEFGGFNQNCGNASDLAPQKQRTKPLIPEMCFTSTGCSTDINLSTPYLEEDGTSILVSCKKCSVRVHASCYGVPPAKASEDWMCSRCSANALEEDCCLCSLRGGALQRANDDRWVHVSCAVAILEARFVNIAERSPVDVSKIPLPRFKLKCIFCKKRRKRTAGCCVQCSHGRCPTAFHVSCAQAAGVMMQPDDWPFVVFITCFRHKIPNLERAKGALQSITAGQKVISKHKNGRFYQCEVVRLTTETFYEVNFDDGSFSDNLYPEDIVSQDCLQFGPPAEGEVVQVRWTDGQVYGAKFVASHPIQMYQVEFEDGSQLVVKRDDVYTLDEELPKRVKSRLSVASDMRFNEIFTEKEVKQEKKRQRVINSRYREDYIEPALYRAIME
The note with it: read-out: KDM4A % Inhib. (10 uM).

JARID1C (KDM5C), sequence (P41229 whole entry): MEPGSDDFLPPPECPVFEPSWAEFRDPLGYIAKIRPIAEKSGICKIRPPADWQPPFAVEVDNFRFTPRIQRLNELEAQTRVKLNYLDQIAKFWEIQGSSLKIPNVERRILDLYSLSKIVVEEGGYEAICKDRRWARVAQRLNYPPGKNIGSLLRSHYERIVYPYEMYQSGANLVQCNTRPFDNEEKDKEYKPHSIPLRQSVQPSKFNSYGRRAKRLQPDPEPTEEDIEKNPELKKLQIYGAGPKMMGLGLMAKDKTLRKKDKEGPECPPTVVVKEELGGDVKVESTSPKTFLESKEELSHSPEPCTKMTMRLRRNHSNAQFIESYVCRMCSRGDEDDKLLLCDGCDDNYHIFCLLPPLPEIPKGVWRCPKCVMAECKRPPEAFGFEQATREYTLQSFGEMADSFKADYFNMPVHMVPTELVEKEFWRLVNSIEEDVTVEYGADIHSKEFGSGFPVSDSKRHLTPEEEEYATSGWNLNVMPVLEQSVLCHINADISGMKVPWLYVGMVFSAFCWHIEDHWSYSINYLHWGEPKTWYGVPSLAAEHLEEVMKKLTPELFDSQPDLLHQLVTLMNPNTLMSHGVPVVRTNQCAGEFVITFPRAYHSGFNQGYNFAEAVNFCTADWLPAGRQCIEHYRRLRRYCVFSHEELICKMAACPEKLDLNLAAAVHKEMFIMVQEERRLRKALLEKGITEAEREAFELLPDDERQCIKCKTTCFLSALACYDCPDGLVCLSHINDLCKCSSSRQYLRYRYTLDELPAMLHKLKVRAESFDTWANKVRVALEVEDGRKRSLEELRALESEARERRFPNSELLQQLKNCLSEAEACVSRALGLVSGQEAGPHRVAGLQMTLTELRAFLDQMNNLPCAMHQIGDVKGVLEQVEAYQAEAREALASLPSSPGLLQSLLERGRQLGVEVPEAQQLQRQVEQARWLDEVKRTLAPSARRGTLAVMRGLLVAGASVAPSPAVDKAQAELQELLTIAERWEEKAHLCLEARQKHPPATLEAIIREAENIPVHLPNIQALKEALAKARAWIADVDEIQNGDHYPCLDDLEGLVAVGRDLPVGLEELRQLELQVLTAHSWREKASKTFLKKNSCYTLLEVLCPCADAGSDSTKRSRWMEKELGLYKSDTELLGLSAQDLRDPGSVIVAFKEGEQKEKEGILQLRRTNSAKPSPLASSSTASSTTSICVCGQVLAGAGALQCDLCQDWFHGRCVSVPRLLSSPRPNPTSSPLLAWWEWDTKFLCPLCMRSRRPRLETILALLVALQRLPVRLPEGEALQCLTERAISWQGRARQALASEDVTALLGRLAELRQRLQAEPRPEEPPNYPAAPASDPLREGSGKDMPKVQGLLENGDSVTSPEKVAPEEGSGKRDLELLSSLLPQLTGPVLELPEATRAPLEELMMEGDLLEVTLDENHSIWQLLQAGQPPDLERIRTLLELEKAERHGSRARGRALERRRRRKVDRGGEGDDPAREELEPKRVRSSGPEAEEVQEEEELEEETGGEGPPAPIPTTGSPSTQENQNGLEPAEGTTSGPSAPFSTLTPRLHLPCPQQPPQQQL

Take `CC(=O)N1c2ccccc2C(C#N)(c2ccccc2)C1c1cncc(-c2cn(CCCCCN3CCCC3)nn2)c1` (stereo not shown) [compound 119, 119]: the inhibition at 100 µM amounted to 21.1% against JMJD1A (KDM3A) and 46.7% against JARID1C (KDM5C). The molecule also gave an inhibition at 50 µM at JARID1A (KDM5A) of 39.5%.

`CC(=O)N1c2ccccc2C(C#N)(c2ccccc2)C1c1ccc(CCCCCCCN2CCCC2)o1` (stereo not shown) [compound 138, 138]: the inhibition at 10 µM was 14.4% against JMJD2D (KDM4D), 32.3% at JMJD2C (KDM4C) and 24.4% at JMJD2A (KDM4A). Further, the inhibition at 50 µM on JARID1A (KDM5A) stood at 46.6%.

Take `CC(=O)N1c2ccccc2[C@](C#N)(c2ccccc2)[C@H]1c1cncc(/C=C/CCCCCN2CCCC2)c1` (racemic) [compound 5, 5]: the figures for the inhibition at 100 µM at JMJD1A (KDM3A) and on JARID1C (KDM5C) were 15.1 ± 9.5% and 32.3%, respectively. This molecule also showed an inhibition at 50 µM on JARID1A (KDM5A) of 39.1%.
